Experimental data from patent US12662484B2, “Substituted piperidines as bruton's tyrosine kinase inhibitors” (Shenzhen TargetRx, Inc., priority 2016, dated 2026).

Legend:
[1] = biological target: T1, ITK (Homo sapiens, UniProt Q08881); assay: ITK kinase inhibition test (HTRF); assay type: biochemical
T1 construct: purchased Carna 08-181
T1 sequence (Q08881 1-620): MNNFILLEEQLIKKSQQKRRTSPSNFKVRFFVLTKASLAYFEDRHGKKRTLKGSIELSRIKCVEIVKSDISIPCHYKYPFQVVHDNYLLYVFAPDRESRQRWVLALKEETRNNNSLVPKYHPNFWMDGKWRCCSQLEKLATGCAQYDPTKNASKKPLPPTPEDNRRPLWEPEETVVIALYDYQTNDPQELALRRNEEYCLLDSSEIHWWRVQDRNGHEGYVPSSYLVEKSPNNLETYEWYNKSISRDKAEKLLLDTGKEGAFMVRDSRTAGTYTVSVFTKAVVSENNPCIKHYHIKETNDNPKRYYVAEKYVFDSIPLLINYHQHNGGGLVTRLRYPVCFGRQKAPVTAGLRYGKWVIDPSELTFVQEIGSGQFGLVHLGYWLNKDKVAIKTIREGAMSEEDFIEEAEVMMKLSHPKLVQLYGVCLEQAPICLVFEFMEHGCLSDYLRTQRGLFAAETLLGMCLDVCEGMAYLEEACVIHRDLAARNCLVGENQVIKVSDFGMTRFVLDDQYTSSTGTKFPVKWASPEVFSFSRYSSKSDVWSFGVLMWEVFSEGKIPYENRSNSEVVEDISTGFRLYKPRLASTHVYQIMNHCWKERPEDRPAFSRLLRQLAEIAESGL
Method: (4) BTK C481S and ITK Kinase Inhibition Test
Reagents and materials: BTK C481S (Carna, catalog number: 08-547), ITK (Carna, catalog number: 08-181). […].
Kinase Assay: Stock solution of the test compounds were prepared. The final concentration of DMSO in the kinase detection system was not exceed 1%. All of the procedures were carried out on ice, and the total volume of the reaction is 10 μL. Compound (4 μL), substrate and ATP (4 μL), and kinase (2 μL) were added to the wells of a 384-well plate in sequence, shaked for 30 sec, and reacted at room temperature for a proper time. Then, the resection was stopped by adding the detection reagents. The reaction mixture was reacted at room temperature for 1 hr, and detected with Microplate Reader. […].

[2] = biological target: T2, Phospho-BTK (Y223) in NIH/3T3 BTK WT cells (Homo sapiens, UniProt Q06187); assay: Phospho-BTK (Y223) assay, NIH/3T3 BTK WT cells; assay type: cell-based; settings: phospho-BTK Y223, NIH/3T3 BTK WT cells; read-out: NIH/3T3 BTK-WT pBTK IC50
T2 construct: expressed in transfected cells; host or cells: NIH/3T3
T2 sequence (Q06187 whole entry): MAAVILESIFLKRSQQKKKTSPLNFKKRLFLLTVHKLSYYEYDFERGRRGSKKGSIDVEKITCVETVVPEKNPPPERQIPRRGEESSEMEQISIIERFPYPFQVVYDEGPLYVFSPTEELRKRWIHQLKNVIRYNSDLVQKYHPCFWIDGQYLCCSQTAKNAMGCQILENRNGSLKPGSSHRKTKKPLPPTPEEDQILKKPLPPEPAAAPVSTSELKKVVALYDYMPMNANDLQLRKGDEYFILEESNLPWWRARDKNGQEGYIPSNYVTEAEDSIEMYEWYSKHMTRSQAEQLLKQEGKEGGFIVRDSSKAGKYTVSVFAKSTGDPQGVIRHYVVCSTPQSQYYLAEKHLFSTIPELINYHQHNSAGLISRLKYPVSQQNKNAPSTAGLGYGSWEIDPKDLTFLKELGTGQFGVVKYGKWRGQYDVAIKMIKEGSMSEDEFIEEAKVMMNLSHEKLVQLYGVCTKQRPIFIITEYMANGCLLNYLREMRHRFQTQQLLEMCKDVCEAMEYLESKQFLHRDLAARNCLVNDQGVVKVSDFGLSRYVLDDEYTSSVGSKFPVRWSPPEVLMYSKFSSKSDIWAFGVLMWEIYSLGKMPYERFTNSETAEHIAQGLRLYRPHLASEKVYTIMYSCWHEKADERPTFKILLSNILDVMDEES
Method: (§1) (5) Phospho-BTK (Y223) Assay The Adherent Cells Protocol: Day 1: • 1. […] The plate was incubated overnight at 37° C., 5% CO2. Day 2: • 1. 3-fold compound dilution was prepared, and dispensed 50 μL into 100 μL cell culture. 0.5% DMSO was used as positive control of the cell growth. • 2. The plate was incubated at 37° C., 5% CO2 for 0.5 h. • 3. 50 μL of 1 mM Na3VO4 was added, and incubated at 37° C., 5% CO2 for 2 h. • 4. During the incubation, the following reagents were prepared: 1× supplemented lysis buffer: 3 vol ddH2O+1 vol 4× Lysis buffer+100× Blocking reagent. p-BTK (Y223) cryptate-antibody and p-BTK (Y223) d2-antibody working solution: 1 volume of the stock solution of each antibody frozen aliquot (stored at)−20° was added into 19 volumes of the detection buffer (stored at) 4°. • 5. At the end of the incubation, the plate was flicked to remove the medium, then added 50 μL of 1× supplemented lysis buffer, and incubated at RT for 30 min, with 500 rpm shaking. • 6. The lysate was homogenized by pipetting up and down, and transferred 16 μL to a 384-well microplate. 1× supplemented lysis buffer was used as blank control. • 7. 4 μL of premixed antibody working solutions (cryptate Ab:d2 Ab=1:1) was added. The plate was covered with a plate sealer. • 8. Incubated at RT overnight. […] Data Analysis:
(§2) The IC50 value was calculated with GraphPad Prism 7.0.
(§3) The IC50 of the compounds for phosphorylating BTK Y223 was fit using the following formula.

[3] = biological target: T3, BTK C481S (Homo sapiens, UniProt Q06187, C481S); assay: BTK C481S kinase inhibition test (HTRF); assay type: biochemical
T3 construct: purchased Carna 08-547
T3 sequence (Q06187 whole entry C481S): as the sequence (Q06187 whole entry) above, with C481S counted along it
Method: Kinase Assay: Stock solution of the test compounds were prepared. The final concentration of DMSO in the kinase detection system was not exceed 1%. All of the procedures were carried out on ice, and the total volume of the reaction is 10 μL. Compound (4 μL), substrate and ATP (4 μL), and kinase (2 μL) were added to the wells of a 384-well plate in sequence, shaked for 30 sec, and reacted at room temperature for a proper time. Then, the resection was stopped by adding the detection reagents. The reaction mixture was reacted at room temperature for 1 hr, and detected with Microplate Reader.

[4] = biological target: T4, Phospho-BTK (Y223) in NIH/3T3 BTK C481S cells (Homo sapiens, UniProt Q06187, C481S); assay: Phospho-BTK (Y223) assay, NIH/3T3 BTK C481S cells; assay type: cell-based; settings: phospho-BTK Y223, NIH/3T3 BTK C481S cells; read-out: NIH/3T3 BTK-C481S pBTK IC50
T4 construct: expressed in transfected cells; host or cells: NIH/3T3
T4 sequence (Q06187 whole entry C481S): as the sequence (Q06187 whole entry) above, with C481S counted along it
Method: as §1, §2, §3

[5] = Pharmacokinetics and brain distribution study after a single oral administration
Source text: (6) Pharmacokinetics and Brain Distribution Study in Male Sprague Dawley Rats Following a Single Oral Administration
This study is designed to evaluate the pharmacokinetics and brain distribution of compounds disclosed herein in male Sprague Dawley Rat following a single Oral administration.
The animals were fasted overnight from 18:00 p.m. before the dosing day, and fed at 4 hr post-dose. All animals were free access to water during the study. Blood, CSF and brain were collected after each occasion of dosing at 0.5, 1, 2, and 8 hr. Blood samples (˜0.25 mL per time-point) were collected via jugular venous sinus puncture and placed in K2EDTA-containing tubes. Immediately following blood collection, the samples were inverted several times and held on wet ice before centrifugation. All the samples were centrifuged within 30 min of collection under refrigeration (set to maintain 4° C. for 5 min at 6000 rpm) to obtain plasma. The CSF samples (about 100 μL) were collected into tubes via puncture of the cisterna magna. The brain samples were rinsed with saline, drained with filter paper and removed with blood vessels, then weighted and recorded. 5-fold of the homogenate solvent (30% MeOH/70% 10 mM PBS) were used for the homogenization. All the samples were stored at −80° C., or lower until being analyzed with LC-MS/MS. Concentrations of the compounds disclosed herein in each matrix were used for PK analysis by non-compartmental method using WinNonlin.

[6] = in vivo; settings: male, Sprague-Dawley, rat
[7] = biological target: T5, BTK (Homo sapiens, UniProt Q06187); assay: Kinase inhibition test (HTRF), BTK; assay type: biochemical; settings: 1 nM BTK, 20 μM ATP
T5 construct: purchased Invitrogen PR5442A
T5 sequence (Q06187 whole entry): as the sequence (Q06187 whole entry) above
Method: (1) Kinase Inhibition Test
• 1) Compound dilution: The test compounds were dissolved in DMSO to make a 10 mM stock solution.

[8] = male, Sprague-Dawley, rat, in vivo
[9] = male SD rat, 10 mg/kg oral, CSF
[10] = male SD rat, 10 mg/kg oral, brain
[11] = male SD rat, 10 mg/kg oral, plasma
[12] = male, Sprague Dawley, rat, CSF, po, 10 mg/kg
[13] = male, Sprague Dawley, rat, brain, po, 10 mg/kg
[14] = male, Sprague Dawley, rat, plasma, po, 10 mg/kg

Compound | IC50 [1] [nM] | IC50 [2] [nM] | IC50 [3] [nM] | IC50 [4] [nM] | Cmax, CSF [5, 9] [ng/mL] | Cmax, Brain [5, 10] [ng/mL] | AUC(0-t) [5, 12] [ng·h/mL] | AUC(0-inf) [5, 14] [ng·h/mL] | AUC(0-t) [5, 14] [ng·h/mL] | MRT inf [5, 14] [min] | also measured
C=CC(=O)N1CCC[C@@H](c2cn(-c3ccc(Oc4ccccc4)cc3)c3c(N)ncnc23)C1 [Example 3, (S)-1-(3-(4-amino-5-(4-phenoxyphenyl)-5H-pyrrolo[3,2-d]pyrimidin-7-yl)piperidin-1-yl)prop-2-en-1-one] | 139 | 6.62 | 10.7 | 502 |  |  |  |  |  |  | 
C=CC(=O)N1CCC[C@@H](c2nc(-c3ccc(Oc4ccccc4)cc3)c3c(N)nccn23)C1 [Example 7, (R)-1-(3-(8-amino-1-(4-phenoxyphenyl)imidazo[1,5-a]pyrazin-3-yl)piperidin-1-yl)prop-2-en-1-one] | 21.9 | 7.36 | 2.46 | 162 | 0.478 | 18 | 0.119 | 285 | 275 | 122 | Cl_pred, Plasma [5, 11]: 586; Vz_pred, Plasma [5, 11]: 85.5 L/kg; Tmax [5, 12]: 30 min; AUC(0-t) [5, 13]: 16.4 ng·h/mL; Tmax [5, 13]: 30 min; Cmax [5, 14]: 117 ng/mL; Tmax [5, 14]: 30 min; half-life [5, 14]: 101 min
C=CC(=O)N1CCC[C@@H](n2nc(-c3ccc(Oc4ccccc4)cc3)c3c(N)ncnc32)C1 [Ibrutinib, reference compound] |  |  |  |  | 0.35 | 25.4 | 0.0875 | 666 | 626 | 145 | 

More lines, main results first:

IC50 [1] [nM] | IC50 [2] [nM] | IC50 [3] [nM] | IC50 [4] [nM] | Compound | Cmax, CSF [5, 9] [ng/mL] | Cmax, Brain [5, 10] [ng/mL] | AUC(0-t) [5, 12] [ng·h/mL] | AUC(0-inf) [5, 14] [ng·h/mL] | AUC(0-t) [5, 14] [ng·h/mL] | MRT inf [5, 14] [min] | also measured
619 | 5.48 | 6.02 | 663 | C=CC(=O)N1CCC[C@@H](c2nn(-c3ccc(Oc4ccccc4)cc3)c3c(N)ncnc23)C1 [Example 5, (R)-1-(3-(7-amino-1-(4-phenoxyphenyl)-1H-pyrazolo[4,3-d]pyrimidin-3-yl)piperidin-1-yl)prop-2-en-1-one] |  |  |  |  |  |  | 
4380 | 18.7 | 16.1 | > 1000 | C=CC(=O)N1CCC[C@H](c2nn(-c3ccc(Oc4ccccc4)cc3)c3c(N)ncnc23)C1 [Example 6, (S)-1-(3-(7-amino-1-(4-phenoxyphenyl)-1H-pyrazolo[4,3-d]pyrimidin-3-yl)piperidin-1-yl)prop-2-en-1-one] |  |  |  |  |  |  | 
172 | 4.86 | 3.85 | 291 | C=CC(=O)N1CCC[C@@H](c2nc(-c3ccc(Oc4ccccc4)cc3)c3c(N)ncnn23)C1 [Example 8, (R)-1-(3-(4-amino-5-(4-phenoxyphenyl)imidazo[5,1-f][1,2,4]triazin-7-yl)piperidin-1-yl)prop-2-en-1-one] |  |  |  |  |  |  | AUC(0-t) ([6]; iv, 0.5 mg/kg): 255 ng·h/mL; Cmax ([6]; iv, 0.5 mg/kg): 1120 ng/mL; AUC(0-t) ([6]; po, 10 mg/kg): 820 ng·h/mL; Cmax ([6]; po, 10 mg/kg): 348 ng/mL; Tmax ([6]; po, 10 mg/kg): 20 min; IC50 [7]: < 1 nM; F [8]: 16.0%
